Assay results: a melting point compilation (Tetko et al.; mined from patent text by program, amines drawn as free bases though some values may be those of a salt)

Row | melting point [°C] | Compound
1 | 94.8 | N#CC(Nc1ccc2ccccc2c1)c1c(Cl)cccc1Cl (configuration not stated)
2 | 200 to 203 | CNC(=O)Nc1nc(CC(=O)Nc2cccc(C(F)(F)F)c2)cs1
3 | 251 | N#Cc1c(O)nc2onc(-c3ccccc3)c2c1N
4 | 179 to 180 | COCCc1nc2c(N)nc3ccccc3c2n1CCCNC(=O)NC1CCCCC1
5 | 128 to 130 | Nc1cccc(CC2COc3ccc(OCc4ccc5ccc(Cl)cc5n4)cc3C2)c1 (single isomer, unassigned; (+))
6 | 184 to 187 | Cc1nc2c(N)nc3ccccc3c2n1CCCCS(C)=O (configuration not stated)
7 | > 300 | Nc1cc(Cl)cc(Nc2ncnc3[nH]cc(C(=O)c4ccccc4)c23)c1
8 | 158 to 160 | CCc1ccc(-n2nc(Cl)cc2-c2ccc(S(C)(=O)=O)cc2)cc1N
9 | 116 to 119 | CC(C)(C)[Si](C)(C)OC1CC=C(c2ccc(NC(=O)OCc3ccccc3)c(F)c2)CC1 (configuration not stated)
10 | < 50 | CC(O)c1cc([N+](=O)[O-])ccc1F (configuration not stated)
11 | 57 to 61 | CCCCCCCCCCCCn1nnnc1CCC(=O)Nc1c(OC)cc(OC)cc1OC
12 | 105 | C=CCc1c(OCC(O)COc2ccc3c(=O)cc(C(=O)O)oc3c2CC=C)ccc(C(C)=O)c1O (configuration not stated)
13 | 122 to 123 | O=C(O)COCc1nn(-c2ccc(Cl)cc2)c2c1CCC2
14 | 130 to 132 | O=C1CCC(c2ccc(NC(=O)CCNCCc3ccccc3)cc2)=NN1
15 | 114 to 116 | COc1cc(C(C)=O)ccc1OCCCCN1CCN(c2nsc3ccccc23)CC1
16 | 203 to 204 | Cc1cc(C(=O)N2Cc3ccccc3Cc3ccccc32)ccc1N
17 | 286 to 289 | C#Cc1cccc(Nc2ncnc3ccc(S(=O)(=O)n4ccc(C=CC(=O)O)c4)cc23)c1
18 | 65 to 73 | COC(=O)CCc1ccc(OCC(C)NCC(O)c2cccc(Cl)c2)cc1 (configuration not stated)
19 | 196 to 197 | Cc1ccc(Oc2cncc3sc(C(N)=O)cc23)cc1
20 | 209 | Cc1ccc2nc(S)oc2c1
21 | 123 to 128 | COc1nc(C)nc(N2CCc3ccccc3CC2)c1[N+](=O)[O-]
22 | 122 to 123 | Brc1cnc2nc(N3CCN(CCCCOc4ccccc4)CC3)nn2c1
23 | 229 to 234 | COc1cccc(N2CCN(C(=O)c3ccccc3C(c3ccc(O)cc3)c3ccc(O)cc3)CC2)c1

Row | melting point [°C] | Compound
24 | 198 to 200 | CCCCc1nc2c(N)nc3ccccc3c2n1CCCC(=NOC)c1ccccc1
25 | 194 to 195 | CC(C)(O)Cn1c(CCO)nc2c(N)nc3cccnc3c21
26 | 200 to 203 | O=C1OC(c2ccccc2)=NC1=NNc1ccccc1
27 | 198 | CC(C)(C)C1=C(C#N)C(c2ccccc2Cl)c2c[nH]nc2N1 (configuration not stated)
28 | 147 to 149 | CCN1C(=O)C(C)(C)C(=O)N(C)c2cc(CN(CCn3ccc4oc(C)cc4c3=O)Cc3cccnc3C=O)ccc21
29 | 140 | COc1cc(OC)cc(Oc2ccc(C(=O)N(C(C)C)C3CCCCC3)cc2)c1
30 | 161 to 183 | CCc1ccccc1C=CC=C1SC(=S)N(CC(=O)O)C1=O
31 | 205 | Cc1cn(C)c(C(=O)O)c1-c1ccccc1[N+](=O)[O-]
32 | 113 to 114 | CNc1ccc(S(=O)(=O)Nc2ccccc2)cc1
33 | 233 to 234 | Cc1cnc(C)n2c1c(CCN1CCC(NC(=O)c3ccccc3)CC1)c1ccccc12
34 | 198 | O=C(Nc1cccc2c1C(=O)N(CC(=O)N1CCC(CO)CC1)C2=O)c1ccc(Cl)s1
35 | 154 | Cn1cncc1C(O)(c1ccc(Cl)cc1)c1ccc2nc(C#Cc3ccccc3)cc(-c3cccc(Cl)c3)c2c1 (configuration not stated)
36 | 95 to 97 | CCOC(=O)c1cc2cccc(OCC(O)CCl)c2o1 (configuration not stated)
37 | 196 to 197 | Cc1ccc(C(=O)NCCO)cc1-n1c(C)cc(OCc2ccccc2CNC(=O)Nc2cc(C(C)(C)C)nn2-c2ccc(Cl)c(O)c2)c(Cl)c1=O
38 | 244 to 245 | COc1cc2[nH]c3c(c2cc1OC)CC(=CC1CCN(Cc2ccccc2)CC1)C3=O
39 | 105 to 107 | Cc1c(CC(C)(C)C(=O)O)n(Cc2ccc(Cl)cc2)c2ccc(OCc3ccc4ccc(Cl)cc4n3)cc12
40 | 113 to 117 | O=C(Cn1cccc(NC(=O)OCc2ccccc2)c1=O)NC(Cc1ccccc1)C(=O)C(F)(F)F (configuration not stated)
41 | 134 | Fc1ccc2c(c1)CCc1cccnc1C2=C1CCNCC1
42 | 109 to 110 | CS(=O)(=O)c1ccc(-c2cnn(-c3ccc(F)c(F)c3)c(=O)c2-c2ccc(F)cc2)cc1
43 | 268 to 270 | Cn1cc(C(N)=O)c(=O)c2ccc(C(C)(C)C)cc21
44 | 132 to 133 | CC(C)n1nc(-c2cc(C(=O)N3CCOCC3)cnc2-c2ccccc2)ccc1=O
45 | 191 | O=c1[nH]c2cc(Cl)ccc2n1CCCN1CCC(O)(c2ccc(Cl)cc2)CC1
46 | 160 to 165 | CCOC(=O)c1cn(CCc2ccc(OC)cc2)c2cc(C3CC3)nn2c1=O

Row | melting point [°C] | Compound
47 | 125 to 130 | CC(C)(C)[S@](=O)N1CCC[C@H]1c1cccs1
48 | 173 to 175 | OCC1OC(n2cnc3c(NCC4Cc5cccc6cccc4c56)ncnc32)C(O)C1O (configuration not stated)
49 | 196 to 201 | CC(=O)Nc1c(OC(C)=O)cc(C(=O)O)cc1[N+](=O)[O-]
50 | 90 | CN(C)Cc1ccc(CSCCNC(=O)NCCN(C)CCN(Cc2ccc(F)cc2)c2ccccn2)o1
51 | 177 to 178 | CCOC(=O)Cc1ccc(NC(=O)/C=C/c2cnn(C)c2-c2ccc(F)cc2)cc1
52 | > 200 | Cc1cnc2c(c1)C(=O)c1nccc(Br)c1C2=O
53 | > 300 | Clc1cc(Nc2ccccc2)c2nc[nH]c2n1
54 | 159 to 160 | CCCC(=O)N(CCC)C1Cc2ccc(-c3ccc(=O)[nH]n3)cc2C1 (single isomer, unassigned; (+))
55 | 153 to 155 | CNc1nc(CC(=O)Nc2cccc(C(F)(F)F)c2)cs1
56 | 242 to 243 | CC12CCC(C1)C1(C)Oc3ccc(C(=O)c4ccc(C=CC(=O)O)cc4)cc3C21C (configuration not stated)
57 | 160 to 162 | CC(=O)c1cn(S(=O)(=O)c2ccccc2)c2nccc(Cl)c12
58 | 181 to 183 | CCCN(c1ncnc2[nH]cnc12)n1cccc1
59 | > 300 | O=C(O)c1ccc(-c2cnc3c(O)ncnc3n2)cc1
60 | 114 to 115 | O=C(CCc1ccccc1)N[C@H](Cc1ccc(C(F)(F)F)cc1)[C@@H](O)c1ccc(F)c(F)c1 (racemic)
61 | 64 to 65 | CN1CCC(=O)C(c2cccc(C(F)(F)F)c2)C1 (configuration not stated)
62 | 213 to 216 | CC(C)(C)OC(=O)n1nc(-c2cc3ccc(OCCCN4CCCC(O)C4)cc3n2C(=O)OC(C)(C)C)c2sc(-c3ccccc3)cc21 (configuration not stated)
63 | 78 to 80 | CC#CCOc1ccc(S(=O)(=O)NC)cc1
64 | > 300 | O=C(O)c1ccc(C(=O)O)c2c(C(O)=Nc3ccccc3)ccc(C(=O)O)c12
65 | 55 to 58 | CCOC(=O)c1ccc(CSc2nnc(C)s2)cc1
66 | 145 to 148 | CCOC(=O)c1cc(=O)c2c(OCC(O)COc3cccc(O)c3C(C)=O)cccc2o1 (configuration not stated)
67 | 175 to 177 | COc1cccc(OC)c1C(=O)NC1=NN=C(C(C)(C)C)CS1
68 | 117 | COc1c(C)cc2c(c1C)C[C@@H]1c3ccccc3N[C@H]21 (relative stereo)
69 | 116 | COc1c(O)cccc1C=O

Row | melting point [°C] | Compound
70 | 91 to 93 | Cc1c(Cc2cc(Cl)cc(Cl)c2)c(C(F)(F)F)nn1CCO
71 | 155 to 156 | COC(=O)c1c(C(=O)OC)c(-c2nccnc2C)n(NS(=O)(=O)c2ccc(C)cc2)c1C
72 | 100 to 102 | CCCCCNC(=O)N(C)c1cccc(-c2ccc(CCC(=O)O)cc2)c1
73 | 140 to 141 | O=C(NCCCCOc1ccc(-n2ccnc2)cc1)c1ccc(Br)cc1
74 | 75 to 80 | O=C(O)c1c(F)cc(OCCNC(=O)C2Cc3ccccc3N2S(=O)(=O)c2ccc(-c3ccc(F)cc3Cl)cc2)cc1F (configuration not stated)
75 | 159 to 161 | Cc1ccc(OS(=O)(=O)c2ccc(N3CCN(C)C3=O)cc2)c(C)c1
76 | 34 | COc1ccc2ccc(OS(=O)(=O)C(F)(F)F)cc2c1
77 | 80.5 to 81.5 | OC1CCc2c(-c3ccccc3)cccc21 (configuration not stated)
78 | 87 to 91 | Cc1ccc(S(=O)(=O)NCCN(CCNS(=O)(=O)c2ccc(C)cc2)Cc2ccccc2)cc1
79 | 128 to 130 | Cc1ccc(-c2c(N)oc3c(C(C)(C)C)cc(C(C)(C)C)cc23)cc1C
80 | 343 to 346 | O=c1[nH]c2ncc(-c3ccc4[nH]ccc4c3)nc2n1CC1CCCCC1
81 | 180 to 185 | COC(=O)Nc1cc(NC(=O)NSC(=S)N(C)C)ccc1C
82 | 164 to 166 | Nc1nccn2c(C3CCC3)nc(-c3ccccc3)c12
83 | 207 to 208 | CC(C)c1cc2ncccc2cc1Oc1cnc(N)nc1N
84 | 94 to 95.1 | Cc1c(Cl)cc(C=O)c(O)c1Cl
85 | 193 to 195 | CCNc1cccc2c1C(=O)c1cccc(NCC)c1C2=O
86 | 208 to 209 | COc1ccc(-c2cc3ccccc3[nH]2)cc1N
87 | 259 to 262 | Cc1cc(-n2ccnc2)cc2ccc(=O)[nH]c12
88 | 111 to 112 | O=C(NCC(=O)N1CCCCC1)OCc1ccccc1
89 | 83 | C=C(C)C(=O)OCCCCCCOc1ccc(C(=O)O)cc1
90 | 144 to 150 | Nc1ccc2c(c1)C(CN1CCCCC1)CO2 (configuration not stated)
91 | 235 | O=C1NC(=O)N2c3ccccc3[C@H]3CCN4CCC[C@H]1[C@H]4[C@H]32 (racemic)
92 | 198 to 200 | O=C(O)Cc1ccc(NC(=O)C(COc2ccccc2Cl)NS(=O)(=O)c2ccc(I)cc2)cc1 (racemic)

Row | Compound | melting point [°C]
93 | Nc1nc(Cl)nc(Cl)c1[N+](=O)[O-] | 161 to 162
94 | FC(F)(F)c1ccc2sc(C3=CCN(Cc4ccccc4)CC3)nc2c1 | 124 to 125
95 | C#Cc1ccc2c(c1)C(c1ccccn1)=NCc1c(-c3nc(C(C)C)no3)ncn1-2 | > 200
96 | CC(C)Oc1cccc(C2(C)CN(C)CCC2O)c1 (configuration not stated) | 75 to 76
97 | CCCCCC(C)C(C)c1cc(O)c2c(c1)OC(C)(C)c1ccncc1-2 (configuration not stated) | 155 to 157
